According to US8957106B2, “Iminosugar treatment of tumors” (The Chancellor, Masters and Scholars of the University of …, priority 2007, dated 2015):

Assays:
MNT-1 melanoma cells = assay: MTS cell viability assay, MNT-1; assay type: cell-based; settings: Homo sapiens, MNT-1, 24 h, read-out: IC50 (concentration reducing number of viable cells by 50%)
Description: Cells were cultured at indicated densities for 24 h, medium was removed and the incubation was continued in a fresh culture medium containing various GC2 or DTIC concentrations. In control experiments, cells were grown in a culture medium containing GC2 buffer.
The standard […] (MTS)-3-(4,5-dimethylthiazol-2-yl)-5-(3-carboxymethoxyphenyl)-2-(4-sulphophenyl)-2H-tetrazolium inner salt solution assay was performed in order to examine the cytotoxic/cytostatic effect of GC2 on melanoma cells. Briefly, 7.5×10^3 cells were seeded in 96-well microtiter plates (Nunc). After an overnight incubation, serial dilutions of GC2 or DTIC were added in triplicate to a final volume of 100 μl. The blank was represented by a culture medium without cells containing the highest GC2 or DTIC concentration. After 24 h of incubation 20 μl MTS was added to each well and all samples were incubated for 3 h at 37° C. An absorbance of each well was read at 450 nm in a microplate reader. A percentage of cell viability was calculated considering that 100% cell viability was represented by an absorbance of untreated samples […]. Alternatively, the number of viable cells was determined by Trypan blue exclusion test. Melanoma cells treated with GC2 were trypsinized and cells negative for blue staining (viable cells) were counted using a hemocytometer. […]

MNT-1 cells = assay: Annexin V/PI double labeling, flow cytometry, MNT-1; assay type: cell-based; settings: MNT-1, 6 μM
Description: Apoptosis in GC2-treated melanoma cells was detected using Annexin V and PI double labeling assay, see van Engeland, M., et al., Cytometry, 31, 1-9, 1998. Annexin V/PI labeling was applied to both fluorescence microscopy and flow cytometry following the protocol supplied by the manufacturer. Briefly, for fluorescence microscopy analysis adherent cells (approximately 16×10^4) treated with GC2 were washed with annexin V binding buffer, and incubated with Alexa Fluor® 488 Annexin V (5 μl in 1 ml annexin V binding buffer) for 15 min at RT, in the dark, to which 0.2 μg PI was added. Live cells were washed with annexin V binding buffer and examined by microscopy. For flow cytometric analysis, cells treated with GC2 were harvested by trypsinisation and a number of viable cells was counted. 16×10^4 cells were re-suspended in 0.2 ml annexin V binding buffer and treated in the same were adherent cells. Finally, labeled cells were analyzed with a FACScan™ using CellQuest™ software (Becton Dickinson, San Jose, Calif.).
Cells cultured under normal conditions for 24 h were further treated for 5 h, 8 h or 24 h with 6 μM of GC2, labeled with annexin V and PI and quantitatively analyzed by flow cytometry for viable, apoptotic and necrotic populations (FIG. 7).

B16F10 cells = assay: Cell cycle distribution analysis (PI, flow cytometry), B16F10; assay type: cell-based, murine; settings: B16F10, 6 μM, 24 h
Description: Cell cycle analysis in melanoma cells treated with GC2 was performed by determining DNA content using propidium iodide (PI) staining. PI intercalates into the major groove of double stranded DNA and produces a highly fluorescent adduct that can be excited at 488 nm and with a broad emission centered at 600 nm, see e.g. Krishan A. J. Cell. Biol. 66, 188, 1975. Melanoma cells (20×10^4) were cultured in 25 cm^2 tissue culture flasks for 24 h, followed by a further incubation for indicated time periods with 6 μM GC2. After treatment, adherent cells were trypsinized and a number of viable cells was determined by trypan blue exclusion. […] cells were re-suspended in 200 μl FACS buffer (2% FCS in PBS) and fixed with 600 μl absolute methanol, dropwise added under gentle vortexing, for at least 2 h at −20° C. Fixed cells were washed with FACS buffer, centrifuged for 5 min at 1500 rpm, at 4° C., and incubated for 30 min, in the dark, at room temperature (RT) with 200 μl PI staining solution in 3.8 mM sodium citrate (10 μl RNaze 10 μg/ml previously boiled for 5 min and 1 μl PI 10 mg/ml). The staining solution was removed by centrifugation and the cell pellet was re-suspended in 200 μl FACS buffer. Samples were analyzed for DNA content using a FACScan™ using CellQuest™ software (Becton Dickinson, San Jose, Calif.). […]

IC50 (MNT-1 melanoma cells): 7 to 8 µM
SMILES: CC(=O)O.CCCCCCCCCN1[C@@H](CO)[C@@H](O)[C@H](O)[C@@H]1CCCCCCCC [GC2, (2S,3R,4R,5S)-3,4-dihydroxy-N-nonyl-5-octyl-2 hydroxymethylpyrrolidinium acetate]
increase of apoptotic population versus control (MNT-1 cells; 5 h): doubled | increase of necrotic fraction versus control (factor) (MNT-1 cells; 5 h): 2.3 | apoptotic population (MNT-1 cells; 5 h, control 3.29%): 6.94% | necrotic fraction (MNT-1 cells; 5 h, control 4.24%): 10.07% | increase of apoptotic population versus control (times) (MNT-1 cells; 8 h): 3.5 | increase of necrotic fraction versus control (factor) (MNT-1 cells; 8 h): 2.9 | apoptotic population (MNT-1 cells; 8 h, control 4.32%): 15.49% | necrotic fraction (MNT-1 cells; 8 h, control 5.84%): 17.25% | increase of apoptotic population versus control (times) (MNT-1 cells; 24 h): 7.6 | increase of necrotic fraction versus control (factor) (MNT-1 cells; 24 h): 9.5 | necrotic fraction (MNT-1 cells; 24 h, control 2.07%): 19.18% | apoptotic population (MNT-1 cells; 24 h, control 3.25%): 24.86% | number of cells in G2 phase (B16F10 cells; untreated 21.68%): 16.96% | proportion of surviving cells in G0/G1 phase (B16F10 cells; untreated 45.42): 53.74%
